Source: ChEMBL document CHEMBL1201862, “PubChem BioAssay data set” (2004)
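Growth conditions: 96-well plates. Treatment: test compound, 48 hours, 5 concentrations. Analysis: linear interpolation between bracketing concentrations; unreached endpoints set to highest concentration. The concentration for 50% growth inhibition is given as GI50.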 The source made the active and inactive calls. Cut-off read from the data, not from the text of the source: active = GI50 up to about 1.1 µM and inactive = higher.

Key:
Test in all cases: growth of human tumour cells (NCI), 48 h
PC-3 = system: PC-3
HT-29 = system: HT-29
MDA-MB-231 = system: MDA-MB-231
A498 = system: A498
HCT-116 = system: HCT-116
Malme-3M = system: Malme-3M
MDA-MB-435 = system: MDA-MB-435
OVCAR-8 = system: OVCAR-8
NCI-H460 = system: NCI-H460
U-251 = system: U-251
SF-295 = system: SF-295
KM12 = system: KM12
SW-620 = system: SW-620
HOP-92 = system: HOP-92
M14 = system: M14
IGROV-1 = system: IGROV-1
NCI-H226 = system: NCI-H226
HCT-15 = system: HCT-15
Hs-578T = system: Hs-578T
CCRF-CEM = system: CCRF-CEM

CC(C)CN(CC#N)CC(C)C
GI50 (PC-3): > 100 µM (inactive)
GI50 (HT-29): > 100 µM (inactive)
GI50 (MDA-MB-231): > 100 µM (inactive)
GI50 (A498): > 100 µM (inactive)
GI50 (HCT-116): > 100 µM (inactive)
GI50 (Malme-3M): > 100 µM (inactive)
GI50 (MDA-MB-435): > 100 µM (inactive)
GI50 (OVCAR-8): > 100 µM (inactive)
GI50 (NCI-H460): > 100 µM (inactive)
GI50 (U-251): > 100 µM (inactive)
GI50 (SF-295): > 100 µM (inactive)
GI50 (KM12): > 100 µM (inactive)
GI50 (SW-620): > 100 µM (inactive)
GI50 (HOP-92): > 100 µM (inactive)
GI50 (M14): > 100 µM (inactive)
GI50 (IGROV-1): > 100 µM (inactive)
GI50 (NCI-H226): > 100 µM (inactive)
GI50 (HCT-15): > 100 µM
GI50 (Hs-578T): > 100 µM (inactive)

N#C/C(=C\c1cc(O)c(O)c(O)c1)C(N)=O
GI50 (PC-3): > 22.2 µM (inactive)
GI50 (HT-29): > 92.7 µM (inactive)
GI50 (MDA-MB-231): > 66.5 µM (inactive)
GI50 (A498): > 100 µM (inactive)
GI50 (HCT-116): > 70.1 µM (inactive)
GI50 (Malme-3M): > 100 µM (inactive)
GI50 (MDA-MB-435): > 55.7 µM (inactive)
GI50 (OVCAR-8): > 100 µM (inactive)
GI50 (NCI-H460): > 79.3 µM (inactive)
GI50 (U-251): > 87.5 µM (inactive)
GI50 (SF-295): > 100 µM (inactive)
GI50 (KM12): > 90.4 µM (inactive)
GI50 (SW-620): > 84.5 µM (inactive)
GI50 (HOP-92): 98.2 µM (inactive)
GI50 (M14): > 90.2 µM (inactive)
GI50 (IGROV-1): > 100 µM (inactive)
GI50 (NCI-H226): > 100 µM (inactive)
GI50 (HCT-15): > 74.5 µM
GI50 (CCRF-CEM): 38.3 µM (inactive)
GI50 (Hs-578T): > 100 µM (inactive)

CC1C[C@]2(C)C(NCCN)=Nc3ccccc3[C@@H]2N(C)c2ccccc21 (some centres undefined)
GI50 (PC-3): 12.9 µM (inactive)
GI50 (HT-29): 3.36 µM (inactive)
GI50 (MDA-MB-231): 8.57 µM (inactive)
GI50 (A498): 16.5 µM (inactive)
GI50 (HCT-116): 8.32 µM (inactive)
GI50 (Malme-3M): 3.72 µM (inactive)
GI50 (MDA-MB-435): 10.7 µM (inactive)
GI50 (OVCAR-8): 14.7 µM (inactive)
GI50 (NCI-H460): 11.1 µM (inactive)
GI50 (SF-295): 17.9 µM (inactive)
GI50 (KM12): 16 µM (inactive)
GI50 (SW-620): 17.5 µM (inactive)
GI50 (HOP-92): 2.3 µM (inactive)
GI50 (M14): 1.9 µM (inactive)
GI50 (IGROV-1): 14.1 µM (inactive)
GI50 (NCI-H226): 14.7 µM (inactive)
GI50 (HCT-15): 17.3 µM
GI50 (CCRF-CEM): 15.9 µM (inactive)
GI50 (Hs-578T): 18.3 µM (inactive)

C/C(=N\c1ccc(Cl)cc1)c1ccncc1
GI50 (PC-3): > 100 µM (inactive)
GI50 (HT-29): > 100 µM (inactive)
GI50 (MDA-MB-231): > 100 µM (inactive)
GI50 (A498): 3.96 µM (inactive)
GI50 (HCT-116): > 100 µM (inactive)
GI50 (Malme-3M): > 100 µM (inactive)
GI50 (MDA-MB-435): 1.9 µM (inactive)
GI50 (OVCAR-8): > 100 µM (inactive)
GI50 (NCI-H460): > 100 µM (inactive)
GI50 (U-251): > 100 µM (inactive)
GI50 (SF-295): > 100 µM (inactive)
GI50 (KM12): > 100 µM (inactive)
GI50 (SW-620): 2.72 µM (inactive)
GI50 (HOP-92): > 100 µM (inactive)
GI50 (M14): > 100 µM (inactive)
GI50 (NCI-H226): > 100 µM (inactive)
GI50 (HCT-15): 0.36 µM
GI50 (CCRF-CEM): 1.22 µM (inactive)
GI50 (Hs-578T): > 100 µM (inactive)

CN(/N=C\c1ccc2ccccc2c1)C1=NCCCCN1
GI50 (PC-3): 16.7 µM (inactive)
GI50 (HT-29): 16.1 µM (inactive)
GI50 (MDA-MB-231): 21.9 µM (inactive)
GI50 (A498): 21 µM (inactive)
GI50 (HCT-116): 24.9 µM (inactive)
GI50 (Malme-3M): 14.9 µM (inactive)
GI50 (MDA-MB-435): 18.2 µM (inactive)
GI50 (OVCAR-8): 29.8 µM (inactive)
GI50 (NCI-H460): 17.2 µM (inactive)
GI50 (U-251): 18 µM (inactive)
GI50 (SF-295): 15.7 µM (inactive)
GI50 (KM12): 20.9 µM (inactive)
GI50 (SW-620): 17.9 µM (inactive)
GI50 (HOP-92): 0.124 µM (active)
GI50 (IGROV-1): 26.5 µM (inactive)
GI50 (NCI-H226): 35.3 µM (inactive)
GI50 (HCT-15): 30.6 µM
GI50 (CCRF-CEM): 23.3 µM (inactive)
GI50 (Hs-578T): 20.6 µM (inactive)

CN(C)CC1CCC(CN(C)C)C1=O (centres undefined)
GI50 (PC-3): 1.98 µM (inactive)
GI50 (HT-29): 6.64 µM (inactive)
GI50 (MDA-MB-231): 2.07 µM (inactive)
GI50 (A498): 25.4 µM (inactive)
GI50 (HCT-116): 2.27 µM (inactive)
GI50 (Malme-3M): 1.73 µM (inactive)
GI50 (MDA-MB-435): 20 µM (inactive)
GI50 (OVCAR-8): 3.31 µM (inactive)
GI50 (NCI-H460): 20.8 µM (inactive)
GI50 (U-251): 24.3 µM (inactive)
GI50 (SF-295): 18.3 µM (inactive)
GI50 (KM12): 10.3 µM (inactive)
GI50 (SW-620): 0.873 µM (active)
GI50 (HOP-92): 2.24 µM (inactive)
GI50 (M14): 2.91 µM (inactive)
GI50 (IGROV-1): 7.94 µM (inactive)
GI50 (NCI-H226): 19.7 µM (inactive)
GI50 (HCT-15): 1.43 µM
GI50 (Hs-578T): 3.06 µM (inactive)

COC(=O)c1c(O)ccc2c1c1cc3ccccc3c(O)c1n2CCc1ccc(OC)c(OC)c1
GI50 (PC-3): 59.8 µM (inactive)
GI50 (HT-29): 1.79 µM (inactive)
GI50 (MDA-MB-231): > 100 µM (inactive)
GI50 (A498): > 100 µM (inactive)
GI50 (HCT-116): 97.1 µM (inactive)
GI50 (Malme-3M): 59.4 µM (inactive)
GI50 (MDA-MB-435): 53.7 µM (inactive)
GI50 (OVCAR-8): 63.4 µM (inactive)
GI50 (NCI-H460): 20.9 µM (inactive)
GI50 (U-251): > 100 µM (inactive)
GI50 (SF-295): 96.8 µM (inactive)
GI50 (KM12): 51.3 µM (inactive)
GI50 (HOP-92): 31.3 µM (inactive)
GI50 (M14): 86.7 µM (inactive)
GI50 (IGROV-1): 42.2 µM (inactive)
GI50 (NCI-H226): > 100 µM (inactive)
GI50 (HCT-15): 61.5 µM
GI50 (CCRF-CEM): 30.1 µM (inactive)
GI50 (Hs-578T): 31.4 µM (inactive)
